Consider one compound from US20190375842A1, “CHECK POINT INHIBITION IN ORGAN FIBROSIS” (VANDERBILT UNIVERSITY, priority 2018, published 2019).

The experiment concerns human lung fibroblasts/fibrocytes (HLF) co-cultured with sarcoidosis CD4+ T cells. Description: CD4+ T cell and human lung fibroblast (HLF) co-culture, collagen I production by flow cytometry. Particulars: after exposure to STATTIC. It is filed as cell-based. Here is the method:
The detection of increased collagen-1 production following co-culture of sarcoidosis PD-1+CD4+ cells supported an investigation of the effects of PD-1 pathway blockade on HLF collagen I production. Purified sarcoidosis CD4+ T cells at a final concentration of 2×10^6/mL were cultured overnight in the presence of α-PD-1, α-PD-L1 and α-PD-L2. HLFs were added the following day at a 1:10 ratio (HLF:T cell). […] Similar results were also observed for collagen I producing fibrocytes (CD45^+) that were cultured in the presence of sarcoidosis CD4+ T cells. There was a significant decline in collagen I production of 22% following PD-1 pathway blockade (p=0.0002) (FIG. 7E). Once again, these differences were only observed when HLF were cultured with sorted CD4+ T cells from sarcoidosis patients that had high baseline PD-1 expression on their CD4+ T cells (p=0.0002) (FIG. 7F) but not from patients with low PD-1 (p=0.10) (FIG. 7G).
LN2 frozen PBMC were thawed and readied for CD4+ T cell purification as aforementioned. 4-5×10^5 CD4+ T cells were plated on a 96-well plate at a final concentration of 2×10^6/mL in RPMI 1640-supplemented medium and then allowed to rest at 37° C. in 5% atmospheric CO2 for 2 hours prior to PD-1 pathway blockade or STATS inhibition using STATTIC. […]
In general terms: Flow cytometry measures light scatter and fluorescence of single cells or particles in a stream.

Turning to `O=[N+]([O-])c1ccc2c(c1)S(=O)(=O)C=C2` [STATTIC], the “collagen 1 production by fibrocytes” value (sarcoidosis PD-1+CD4+ T cells co-cultured with fibrocytes) was “significant reduction”. Moreover, the “collagen 1 production by fibroblasts” value (sarcoidosis PD-1+CD4+ T cells co-cultured with human lung fibroblasts) was “significant reduction”.
